System: carrageenan-induced hind paw edema
Assay: carrageenan-induced hind paw edema (anti-inflammatory effect in vivo)
Set-up: species or system Wistar rats
Details: for time up to which the anti-inflammatory effect increased: after oral administration, diclofenac 4 mg/kg, Zn(II) complex 10 mg/kg, measured at 1-6 hours; for percent inhibition of inflammation (paw edema) vs control group: male Wistar rats, half an hour before carrageenan; for anti-inflammatory effect in vivo (in words): Wistar rats, 10 mg/kg
Description: The crystalline zinc complex was evaluated for anti-inflammatory effects in vivo in Wistar rats, compared to the known NSAID diclofenac as a standard treatment.
Eighteen male Wistar rats (weighing from 200-250 g) were obtained from the “Animal Care and Use Center of College of Pharmacy at King Saud University, Riyadh, Saudi Arabia”. Institutional guidelines were followed for these studies. All rats were provided standard laboratory conditions of “temperature and relative humidity. The rats were kept in plastic cages and given free access to standard laboratory pellet diet and water ad libitum.
The anti-inflammatory studies were performed by the standard carrageenan-induced hind paw edema method of inducing acute swelling, known in the industry and widely reported in the literature. The rats were randomly divided into 3 groups of 6 rats. Group I rats were given carrageenan only, and served as control group. Group II and III rats were given standard diclofenac and the studied Zn(II) complex, respectively.
The standard diclofenac (4 mg/kg) and the Zn(II) complex (10 mg/kg) were administered orally half an hour before sub plantar injection of carrageenan in the right paw. Paw edema was induced by injecting 0.1 ml of a 1% w/v suspension of carrageenan in purified water. The initial and final paw volume of each rat was measured at regular interval of time (1, 2, 3, 4, 5 and 6 hours) after injection, using a digital Plethysmometer (Ugo Basile, Italy). The percent inhibition of edema produced by the diclofenac- and zinc(II) complex-treated groups was determined with respect to the control group, using the standard formula used with this type of test, as known in the industry and reported in the literature. The inhibition of inflammation was analyzed statistically by applying a student t-test, using the MS Excel 2010 spreadsheet program. A P value <0.05 was considered statistically significant.

Compound | time up to which the anti-inflammatory effect increased | percent inhibition of inflammation (paw edema) vs control group (4 mg/kg oral, 5 hours past oral administration) [%] | anti-inflammatory effect in vivo (in words) (10 mg/kg oral) | anti-inflammatory effect in vivo (in words) (10 mg/kg oral, listed as zinc complex) | percent inhibition of inflammation (paw edema) vs control group (10 mg/kg oral, 6 hours post oral administration) [%]
O=C(O)Cc1ccccc1Nc1c(Cl)cccc1Cl [diclofenac, reference compound] | about 5 hours | 82.31 |  |  | 
bis(chloro)-(N,N′-(2,2-dimethylpropane-1,3-diyl)bis(1-(2-chlorophenyl)methanimine))-zinc(II) complex [Zn(II) complex] | about 6 hours |  | good anti-inflammatory effect | good degree of anti-inflammatory activity | 56.39

Source: patent US10144748B1, “Anti-inflammatory zinc(II) complex” (KING SAUD UNIVERSITY, priority 2018, dated 2018)
